{
  "source": "paper PMC10150623",
  "about": "(Journal of Enzyme Inhibition and Medicinal Chemistry, 2023)",
  "key": {"[1]": {"tested_on": "Neuro-2A (N2A) cells"}, "[2]": {"tested_on": "SH-SY5Y cells"}, "[3]": {"biological_target": "BoNT/A LC (1–448 aa) (Clostridium botulinum, UniProt P0DPI0)", "sequence (P0DPI0 1-448 limits assumed)": "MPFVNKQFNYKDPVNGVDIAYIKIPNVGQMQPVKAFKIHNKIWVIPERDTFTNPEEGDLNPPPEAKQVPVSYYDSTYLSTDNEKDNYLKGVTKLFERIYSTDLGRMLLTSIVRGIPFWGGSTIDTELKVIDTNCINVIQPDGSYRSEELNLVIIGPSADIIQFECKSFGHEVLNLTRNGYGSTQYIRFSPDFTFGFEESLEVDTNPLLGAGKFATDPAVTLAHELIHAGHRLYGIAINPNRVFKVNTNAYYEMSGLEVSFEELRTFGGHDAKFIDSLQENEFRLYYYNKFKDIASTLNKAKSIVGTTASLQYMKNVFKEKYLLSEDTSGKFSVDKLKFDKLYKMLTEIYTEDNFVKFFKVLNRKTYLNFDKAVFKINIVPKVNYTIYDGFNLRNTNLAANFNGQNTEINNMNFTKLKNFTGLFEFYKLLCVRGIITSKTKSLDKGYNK", "format": "biochemical"}, "[4]": {"tested_on": "leg muscle paralysis", "design": "species or system KM mice", "conditions": "mouse, in vivo"}, "[5]": {"conditions": "in vivo; cited from earlier work"}, "[6]": {"tested_on": "BoNT/A", "conditions": "cited from earlier work"}, "[7]": {"biological_target": "Clostridium botulinum neurotoxin type A light chain (1-448 aa) (Clostridium botulinum) (UniProt P0DPI0)", "sequence (P0DPI0 1-448)": "as the sequence (P0DPI0 1-448 limits assumed) above", "test": "enzyme inhibition kinetics (HPLC of substrate and products)"}},
  "note": "Peptide text beside a SMILES is read from it.",
  "data": [
    {"compound": "N=C(N)NCCC[C@H](NC(=O)[C@@H](N)CCCNC(=N)N)C(=O)NCC(=O)N[C@@H](Cc1c[nH]c2ccccc12)C(=O)O", "note": "[RRGW] (H-RRGW-OH)", "values": [
      {"measurement": "cytotoxicity (cell viability)", "setting": "[1]", "result": "no cytotoxicity"},
      {"measurement": "cytotoxicity (cell viability)", "setting": "[2]", "result": "no cytotoxicity"}
    ]},
    {"compound": "RRGL", "values": [
      {"measurement": "inhibitory effect on BoNT/A LC proteolytic activity (SNAP-25 cleavage), in words", "setting": "[3]", "result": "RRGW showed a better inhibitory effect on BoNT/A proteolytic activity than RRGC, RRGL"}
    ]},
    {"compound": "Clostridium botulinum neurotoxin type A [BoNT/A]", "values": [
      {"measurement": "DAS (digit abduction score)", "setting": "[4]", "result": "3–4"},
      {"measurement": "nonserious cases following cosmetic use", "setting": "[5]", "result": 995, "unit": "cases"},
      {"measurement": "nonserious cases following therapeutic use", "setting": "[5]", "result": 189, "unit": "cases"},
      {"measurement": "serious cases following cosmetic use", "setting": "[5]", "result": 36, "unit": "cases"},
      {"measurement": "serious cases following therapeutic use", "setting": "[5]", "result": 217, "unit": "cases"}
    ]},
    {"compound": "CRGC", "values": [
      {"measurement": "cell-based activity, in words", "setting": "[6]", "result": "higher activity than RRGC in cell-based experiments"}
    ]},
    {"compound": "RRGW tetrapeptide", "values": [
      {"measurement": "Ki", "setting": "[7]", "result": 0.79, "unit": "µM"}
    ]},
    {"compound": "RHGW", "values": [
      {"measurement": "inhibitory effect on BoNT/A LC proteolytic activity (SNAP-25 cleavage), in words", "setting": "[3]", "result": "RRGW showed a better inhibitory effect on BoNT/A proteolytic activity than RRGC, RRGL and RHGW"}
    ]}
  ]
}
